From ChEMBL document CHEMBL3639063, “Heterocyclic compounds containing a pyrrolopyridine or benzimidazole core” (2015)

Biological target: Ribosomal protein S6 kinase alpha-3 (Homo sapiens, UniProt P51812)
Assay: Kinase Glo Assay: Human RSK2 protein, purchased from Invitrogen, is used to measure kinase activity utilizing Kinase Glo Plus (Promega) a homogeneous assay technology, which uses a luciferin-luciferase based ATP detection reagent to quantify residual ATP. The assay is performed using 0.75 nM His-RSK2, 0.75 uM ATP and 1.0 uM S6 Kinase/RSK Substrate Peptide 1 (Upstate, catalog #12-124), in assay buffer consisting of 25 mM HEPES, pH 7.5, 10 mM MgCl2, 5 mM MnCl2, 50 mM KCl, 0.2% BSA, 0.01% CHAPS, 100 uM Na3VO4, 0.5 mM DTT, and 1% DMSO. Solutions of test compounds at various concentrations are prepared by 1:3 fold serial dilution of a 1 mM solution of compound in DMSO. The DMSO solutions are further diluted with assay buffer to a final concentration of DMSO of 5%.The assay is performed in a 384 well, white, non-binding plate (Corning, catalogue #3574). Solutions of test compounds (10 uL) are transferred to a dry assay plate, followed by addition of 20 uL kinase.

Chain of Ribosomal protein S6 kinase alpha-3 (P51812 whole entry): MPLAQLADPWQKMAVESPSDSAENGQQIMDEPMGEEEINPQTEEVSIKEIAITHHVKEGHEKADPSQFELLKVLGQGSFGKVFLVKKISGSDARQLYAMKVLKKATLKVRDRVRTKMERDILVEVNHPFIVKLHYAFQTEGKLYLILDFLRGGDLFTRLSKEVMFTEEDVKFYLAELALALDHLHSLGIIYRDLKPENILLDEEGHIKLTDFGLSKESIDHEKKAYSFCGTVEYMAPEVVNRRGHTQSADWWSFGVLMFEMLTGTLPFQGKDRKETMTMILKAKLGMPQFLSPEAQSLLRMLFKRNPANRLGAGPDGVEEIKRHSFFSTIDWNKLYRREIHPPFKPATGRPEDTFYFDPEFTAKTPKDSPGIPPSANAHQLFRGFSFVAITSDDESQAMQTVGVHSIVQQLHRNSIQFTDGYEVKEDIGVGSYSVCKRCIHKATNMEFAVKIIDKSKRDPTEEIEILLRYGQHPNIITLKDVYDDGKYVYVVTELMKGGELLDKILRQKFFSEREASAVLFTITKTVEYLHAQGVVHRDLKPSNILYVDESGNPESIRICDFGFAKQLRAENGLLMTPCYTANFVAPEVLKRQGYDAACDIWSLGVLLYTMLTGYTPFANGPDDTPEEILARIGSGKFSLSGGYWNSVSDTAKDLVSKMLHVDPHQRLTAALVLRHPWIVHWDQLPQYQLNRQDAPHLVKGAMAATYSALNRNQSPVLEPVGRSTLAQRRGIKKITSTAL

SMILES: CC1(C)CNC(=O)c2cc3ccc(C(=O)Nc4cc(C(C)(C)C)on4)nc3n2C1
- IC50: 175 nM

SMILES: O=C(Nc1cccc(-c2c[nH]cn2)c1)c1ccc2cc3n(c2n1)CCCNC3=O
- IC50: 17 nM
